# Values quoted from earlier work as cited in patent publication US9272049B2, “Methods of stimulating fat mobilization using a polymer conjugated polyphenol” (NANOPHARMACEUTICALS LLC, priority 2005, dated 2016).
# How the values were obtained:
# [1] = system: insulin-sensitive mammalian cell lines; conditions: several insulin-sensitive mammalian cell lines
smiles,measurement,setting,value
Oc1ccc(C=Cc2cc(O)cc(O)c2)cc1 [Resveratrol],fat accumulation,C. elegans,reduce fat accumulation
same,fat accumulation,[1],reduce fat accumulation
